Results from ChEMBL document CHEMBL1127870, “Substituted 4H-pyrido[1,2-a]pyrimidin-4-one angiotensin II receptor antagonists” (Bioorg Med Chem Lett, 1994).

How the values were obtained:
[1] = molecular target: T1, Type-1 angiotensin II receptor (Bos taurus, UniProt P25104); assay: Binding affinity for angiotensin II receptor of bovine adrenal cortex; format: tissue-based
T1 sequence (P25104 whole entry): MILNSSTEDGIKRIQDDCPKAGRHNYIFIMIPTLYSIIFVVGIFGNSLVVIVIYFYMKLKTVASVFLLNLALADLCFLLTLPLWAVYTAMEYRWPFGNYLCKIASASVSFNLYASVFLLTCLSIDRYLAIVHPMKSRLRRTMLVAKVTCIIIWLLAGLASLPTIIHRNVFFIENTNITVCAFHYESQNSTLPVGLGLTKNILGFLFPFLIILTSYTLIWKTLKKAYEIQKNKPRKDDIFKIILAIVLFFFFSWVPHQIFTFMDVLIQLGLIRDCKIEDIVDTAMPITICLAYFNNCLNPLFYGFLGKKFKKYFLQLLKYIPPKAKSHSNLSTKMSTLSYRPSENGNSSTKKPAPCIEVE

Rattus norvegicus = assay: Tested for drop in blood pressure over 5 hr when administered orally at 10 mg/kg in high renin rat hypertension model; format: functional; settings: route oral

| IC50 [1] [µM] | Compound | Blood pressure (Rattus norvegicus) [mmHg] |
| --- | --- | --- |
| 4 | CCCOc1nc2cc(C)ccn2c(=O)c1Cc1ccc(-c2ccccc2-c2nn[nH]n2)cc1 |  |
| 0.3 | CCCCc1nc(Cl)c(CO)n1Cc1ccc(-c2ccccc2-c2nn[nH]n2)cc1 [LOSARTAN] |  |
| 4.9 | CCOC(=O)c1ccc2nc(OC(C)C)c(Cc3ccc(-c4ccccc4-c4nn[nH]n4)cc3)c(=O)n2c1 |  |
| 0.25 | CCCOc1nc2ccccn2c(=O)c1Cc1ccc(-c2ccccc2-c2nn[nH]n2)cc1 | 50 |
| 4 | Cc1ccc2nc(OCC(C)C)c(Cc3ccc(-c4ccccc4-c4nnn[nH]4)cc3)c(=O)n2c1 |  |
| 69.3 | CC(C)Oc1nc2ccc(C(=O)O)cn2c(=O)c1Cc1ccc(-c2ccccc2-c2nnn[nH]2)cc1 |  |
| 6 | CCCOc1nc2c(C)cccn2c(=O)c1Cc1ccc(-c2ccccc2-c2nn[nH]n2)cc1 |  |
| 2.4 | CCCCOc1nc2ccccn2c(=O)c1Cc1ccc(-c2ccccc2-c2nnn[nH]2)cc1 |  |
| 1 | CC(C)COc1nc2ccc(C(C)O)cn2c(=O)c1Cc1ccc(-c2ccccc2-c2nn[nH]n2)cc1 (centres undefined) |  |
| 1.6 | CCCOc1nc2ccc(C)cn2c(=O)c1Cc1ccc(-c2ccccc2-c2nn[nH]n2)cc1 |  |
| 6 | Cc1ccc2nc(OC(C)C)c(Cc3ccc(-c4ccccc4-c4nnn[nH]4)cc3)c(=O)n2c1 |  |
| 14 | COc1nc2ccccn2c(=O)c1Cc1ccc(-c2ccccc2-c2nn[nH]n2)cc1 |  |
| 4.4 | CCOc1nc2ccccn2c(=O)c1Cc1ccc(-c2ccccc2-c2nnn[nH]2)cc1 |  |
